Measurements as given in the NIST ThermoML archive (doi:10.1021/je7001013).

Assays:
[1] = refractive index (Na D-line) (dimensionless); xn = mol fraction of the nth substance listed; details: 101 kPa, Liquid
[2] = xn = mol fraction of the nth substance listed

CC[S+]([O-])CC [diethyl sulfoxide] + O
Details	refractive index, [1]	surface tension liquid-gas, [2] [mN/m]
298.15 K, x1 = 0.0099	1.3415	65.5
298.15 K, x1 = 0.0207	–	62.5
298.15 K, x1 = 0.0513	1.3735	55.4
298.15 K, x1 = 0.1001	1.399	50.9
298.15 K, x1 = 0.1999	1.43	46
298.15 K, x1 = 0.2999	1.446	42.8
298.15 K, x1 = 0.4091	1.457	–
298.15 K, x1 = 0.4908	–	40.4
298.15 K, x1 = 0.5189	1.458	–
298.15 K, x1 = 0.5803	1.4605	–
298.15 K, x1 = 0.7123	1.4645	37.6
298.15 K, x1 = 0.7741	1.466	–
303.15 K, x1 = 0.0099	1.332	64.8
303.15 K, x1 = 0.0207	–	61.5
303.15 K, x1 = 0.0513	1.3675	54.9
303.15 K, x1 = 0.1001	1.373	50.2
303.15 K, x1 = 0.1999	1.428	45.2
303.15 K, x1 = 0.2999	1.4445	42
303.15 K, x1 = 0.4091	1.4555	–
303.15 K, x1 = 0.4908	–	39.8
303.15 K, x1 = 0.5189	1.457	–
303.15 K, x1 = 0.5803	1.4585	–
303.15 K, x1 = 0.7123	1.463	37.1
303.15 K, x1 = 0.7741	1.464	–
308.15 K, x1 = 0.0099	1.3315	64.1
308.15 K, x1 = 0.0207	–	60.4
308.15 K, x1 = 0.0513	1.3685	54
308.15 K, x1 = 0.1001	1.372	49.5
308.15 K, x1 = 0.1999	1.4265	44.2
308.15 K, x1 = 0.2999	1.443	41.9
308.15 K, x1 = 0.4091	1.453	–
308.15 K, x1 = 0.4908	–	39.3
308.15 K, x1 = 0.5189	1.455	–
308.15 K, x1 = 0.5803	1.4565	–
308.15 K, x1 = 0.7123	1.4615	37
308.15 K, x1 = 0.7741	1.462	–
313.15 K, x1 = 0.0099	–	62.8
313.15 K, x1 = 0.0207	–	59.3
313.15 K, x1 = 0.0513	–	53.1
313.15 K, x1 = 0.1001	–	48.4
313.15 K, x1 = 0.1999	–	47.1
313.15 K, x1 = 0.2999	–	44.3
313.15 K, x1 = 0.4908	–	38.6
313.15 K, x1 = 0.7123	–	36.5
318.15 K, x1 = 0.0099	–	61.8
318.15 K, x1 = 0.0207	–	58.4
318.15 K, x1 = 0.0513	–	52.4
318.15 K, x1 = 0.1001	–	47.7
318.15 K, x1 = 0.1999	–	46.1
318.15 K, x1 = 0.2999	–	43.2
318.15 K, x1 = 0.4908	–	38
318.15 K, x1 = 0.7123	–	35.7
323.15 K, x1 = 0.0099	–	60.8
323.15 K, x1 = 0.0207	–	56.8
323.15 K, x1 = 0.0513	–	50.5
323.15 K, x1 = 0.1001	–	46.5
323.15 K, x1 = 0.1999	–	45.3
323.15 K, x1 = 0.2999	–	41.6
323.15 K, x1 = 0.4908	–	37.3
323.15 K, x1 = 0.7123	–	35
328.15 K, x1 = 0.0099	–	59.9
328.15 K, x1 = 0.0207	–	56.4
328.15 K, x1 = 0.0513	–	49.7
328.15 K, x1 = 0.1001	–	45.7
328.15 K, x1 = 0.1999	–	43.4
328.15 K, x1 = 0.2999	–	40.7
328.15 K, x1 = 0.4908	–	36.6
328.15 K, x1 = 0.7123	–	34.4
